Source: patent US8481011B2, “Use of polyunsaturated compounds as whitening agents” (Pierre Fabre Dermo-Cosmetique, priority 2005, dated 2013)

Assays:
Assay type in all cases: cell-based
[1] = tested on: BDV II murine keratinocytes; experiment: MTT cellular respiration toxicity test on BDV II keratinocytes; details: for % MTT / IC50: BDV II murine keratinocytes; for % MTT: concentration 10 μM, cell viability; for IC50: toxicity; for toxicity ranking on BDV II keratinocytes: ranking in words, viability according to concentration
Text: (§1) The objective of these tests is to measure the toxicity of the new retinoids on keratinocyte and melanocyte cells.
(§2) The method used is a cellular respiration test with the MTT (thiazolile blue) in order to assess cells that are still living.
(§3) The MTT test gives a cellular respiration index; this involves a substrate of dehydrogenases in general and dehydrogenase succinate in particular. The MTT, yellow, partially soluble in water, is reduced in a violet compound, insoluble in water, but soluble in organic solvents (DMSO).
(§4) Prepare a 12 mM solution (5 mg/ml) of MTT in water or the culture medium.
(§5) Dilute this solution to 1:10 in the supernatant fluid or suspension of cells (final MTT 1.2 mM or 0.5 mg/ml), then leave to incubate for 3 hours at 37° C.
(§6) Aspirate the supernatant fluid, the dissolve the violet crystals of formazan MTT in DMSO.
(§7) Read the optical density of the solution at 550 nm (dilute beforehand as required).
(§8) Calibration line: MTT formazan 0-200 μM.

B16 murine melanocytes [2] = experiment: MTT cellular respiration toxicity test on B16 melanocytes; details: for IC50: toxicity; for % MTT: concentration 10 μM, cell viability
Text: as §1, §2, §3, §4, §5, §6, §7, §8

B16 murine melanocytes [3] = experiment: Study of depigmenting activity (melanin dosage); details: at infratoxic doses, in words
Description: The objective of these tests is to measure the depigmenting activity of new retinoids according to their concentration.
The melanin is dosed according to the method described by S. Besson et al., Dermatology Archives. 133:331-336 (1997)′.
Digestion plug: 100 mM NaCl, to mm-Tri-HCl, 1% SDS, 50 mM EDTA, pH 8.
For 50 ml: 292 mg NaCl, 299 mg tris acid, 73 mg tris base, 931 mg EDTA disodium dehydrate, 500 mg SDS, adjust pH (≈5.5) to 8.0 with concentrated NaOH.
K proteinase 10 mg/ml in the digestion plug.
Prepare tubes containing synthetic melanin at concentrations of between 2.5 and 80 μg/ml in the DMSO.
For the cells, determine the protein concentration beforehand, centrifuge in 2 ml tubes and remove the supernatant.
In 2 ml tubes containing a cell remainder, add 300 μl of digestion buffer and 3 μl of K proteinase.
Incubate for 2 hours at 50° C., then a night at 37° C.
Top up the volume to 1 ml with water, then sound test.
Centrifuge for 10 minutes at 20,000 g, drain off all the supernatant (clear) then dissolve the dry melanin remainder in 500-1000 μl of DMSO.
Measure the absorbency at 375 nm and check the spectrum.

| SMILES | % MTT [1] | IC50 ([1]; Mus musculus, Keratinocyte) | IC50 (B16 murine melanocytes [2]; Mus musculus, Melanocyte) | % MTT (B16 murine melanocytes [2]) | depigmenting activity (melanin) (B16 murine melanocytes [3]) | IC50 [1] | toxicity ranking on BDV II keratinocytes [1] | IC50 (B16 murine melanocytes [2]) |
| --- | --- | --- | --- | --- | --- | --- | --- | --- |
| CC1=C(/C=C/C(C)=C/C=C/C(C)=C/C(=O)OC(C)(C)C)C(C)(C)CCC1=O [Example 3, tert-butylic ester of (2E,4E,6E,8E)-3,7-dimethyl-9-(2,6,6-trimethyl-3-oxo-cyclohex-1-enyl)-nona-2,4,6,8-tetraenoic acid] | 85% | 60 µM | 30 µM | 80% | net depigmenting efficacy promotes |  |  |  |
| CC1=C(/C=C/C(C)=C/C=C/C(C)=C/C(=O)OC(C)(C)C)C(C)(C)CCC1O (centres unmarked) [Example 4, tert-butylic ester of (2E,4E,6E,8E)-9-(3-hydroxy-2,6,6-trimethyl-cyclohex-1-enyl)-3,7-dimethyl-nona-2,4,6,8-tetraenoic acid] | 84% | 70 µM | 20 µM | 62% |  |  |  |  |
| COC(=O)/C=C(C)/C=C/C=C(C)/C=C/C1=C(C)C(=O)CCC1(C)C [Example 5, Methylic ester of (2E,4E,6E,8E)-9-[3-(3-oxo)-2,6,6-trimethyl-cyclohex-1-enyl]-3,7-dimethyl-nona-2,4,6,8-tetraenoic acid] | 59% |  |  | 86% | net depigmenting efficacy promotes | 15 µM | then examples 5 and 6 | 60 µM |
| CC1=C(/C=C/C(C)=C/C=C/C(C)=C/C(=O)O)C(C)(C)CCC1O (centres unmarked) [Example 7, (2E,4E,6E,8E)-9-[3-(3-hydroxy)-2,6,6-trimethyl-cyclohex-1-enyl]-3,7-dimethyl-nona-2,4,6,8-tetraenoic acid] | 86% | > 100 µM | 35 µM | 69% |  |  | least toxic |  |
| CC(=O)OC1CCC(C)(C)C(/C=C/C(C)=C/C=C/C(C)=C/C(=O)OC(C)(C)C)=C1C (centres unmarked) [Example 8, tert-butylic ester of (2E,4E,6E,8E)-9-[3-(3-acetoxy)-2,6,6-trimethyl-cyclohex-1-enyl]-3,7-dimethyl-nona-2,4,6,8-tetraenoic acid] | 82% | > 100 µM | 60 µM | 82% | net depigmenting efficacy promotes |  | least toxic |  |
| CC(=O)OC/C=C(C)/C=C/C=C(C)/C=C/C1=C(C)C(=O)CCC1(C)C [Example 11, (2E,4E,6E,8E)-9-[3-(3-oxo)-2,6,6-trimethyl-cyclohex-1-enyl]-3,7-dimethyl-nona-2,4,6,8-tetraenyl acetate] | 60% | 30 µM | 70 µM | 86% |  |  |  |  |
| CC1=C(/C=C/C(C)=C/C=C/C(C)=C/C(=O)O)C(C)(C)CCC1=O [Example 405, 4-oxoretinoic acid] | 78% |  |  | 76% |  | > 100 µM |  | > 100 µM |
| CC1=C(/C=C/C(C)=C/C=C/C(C)=C/C(=O)O)C(C)(C)CCC1 [RA, Retinoic acid, reference compound] | 40% | 3 µM | 10 µM | 50% |  |  |  |  |
